According to patent publication US8889874B2, “Imidazolone-chalcone derivatives as potential anticancer agent and process for the preparation thereof” (Council of Scientific and Industrial Research, priority 2010, dated 2014):

What was measured:
Assay type in all cases: cell-based, human
[1] = tested on: Leukemia cancer cell lines; assay: NCI anticancer screen, SRB assay, panel summary; details: Leukemia panel
Protocol: (§1) Some of biological activity studies were carried out at the National Cancer Institute (NCI), Maryland, USA.
(§2) The compounds were evaluated for anticancer activity against fifty three human cancer cells derived from nine cancer types (leukemia cell line, non-small-cell lung cell line, colon cell line, CNS cell line, melanoma cell line, ovarian cell line, prostate cell line, and breast cancer cell line) as shown in Table 1. For each compound, dose response curves for each cell line were measured at a minimum of five concentrations at 10 fold dilutions. A protocol of 48 h continuous drug exposure was used and a sulforhodamine B (SRB) protein assay was used to estimate cell viability or growth.

[2] = tested on: Melanoma cancer cell lines; assay: NCI anticancer screen, SRB assay, panel summary; details: Melanoma panel
Protocol: as §1, §2

Colon cancer cell lines = assay: NCI anticancer screen, SRB assay, panel summary; details: Colon panel
Protocol: as §1, §2

Breast cancer cell lines = assay: NCI anticancer screen, SRB assay, panel summary
Protocol: as §1, §2

Renal cancer cell lines = assay: NCI anticancer screen, SRB assay, panel summary
Protocol: as §1, §2

[3] = tested on: Non-small cell lung cancer cell lines; assay: NCI anticancer screen, SRB assay, panel summary
Protocol: as §1, §2

[4] = tested on: Ovarian cancer cell lines; assay: NCI anticancer screen, SRB assay, panel summary
Protocol: as §1, §2

CNS cancer cell lines = assay: NCI anticancer screen, SRB assay, panel summary; details: CNS panel
Protocol: as §1, §2

[5] = tested on: RPMI-8226 (leukemia cell line); assay: NCI anticancer screen, SRB assay, 48 h
Outline: (§3)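 Sulforhodamine B protein assay read cell growth after 48 h of continuous compound exposure. Dose-response curves per cell line used at least five 10-fold-diluted concentrations, within a panel of fifty-three human lines from nine tumour types.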

786-0 (renal) = assay: NCI anticancer screen, SRB assay, 48 h
Outline: as §3

SF-295 (CNS) = assay: NCI anticancer screen, SRB assay, 48 h
Outline: as §3

HCT-116 (colon) = assay: NCI anticancer screen, SRB assay, 48 h
Outline: as §3

SK-MEL-5 (melanoma) = assay: NCI anticancer screen, SRB assay, 48 h
Outline: as §3

SW-620 (colon) = assay: NCI anticancer screen, SRB assay, 48 h
Outline: as §3

SK-MEL-28 (melanoma) = assay: NCI anticancer screen, SRB assay, 48 h
Outline: as §3

UO-31 (renal) = assay: NCI anticancer screen, SRB assay, 48 h
Outline: as §3

[6] = tested on: A549/ATCC (non-small cell lung); assay: NCI anticancer screen, SRB assay, 48 h
Outline: as §3

U251 (CNS) = assay: NCI anticancer screen, SRB assay, 48 h
Outline: as §3

OVCAR-4 (ovarian) = assay: NCI anticancer screen, SRB assay, 48 h
Outline: as §3

RXF 393 (renal) = assay: NCI anticancer screen, SRB assay, 48 h
Outline: as §3

A498 (renal) = assay: NCI anticancer screen, SRB assay, 48 h
Outline: as §3

MDA-MB-435 (melanoma) = assay: NCI anticancer screen, SRB assay, 48 h
Outline: as §3

MCF7 (breast) = assay: NCI anticancer screen, SRB assay, 48 h
Outline: as §3

[7] = tested on: NCI-H322M (non-small cell lung); assay: NCI anticancer screen, SRB assay, 48 h
Outline: as §3

[8] = log of concentration in mol/L causing 50% inhibition of net cell growth
[9] = log of concentration resulting in total inhibition of net cell growth
[10] = log of concentration leading to 50% net cell death
[11] = 48 h exposure, SRB, read-out: GI50

COc1cc(/C=C/C(=O)c2cccc(-n3cc(-c4ccc(Cl)cc4)[nH]c3=O)c2)cc(OC)c1OC [5f, 4-(4-chlorophenyl)-1-3-[(E)-3-(3,4,5-trimethoxyphenyl)-2-propenoyl]phenyl-2,3-dihydro-1H-2-imidazolone]
mean graph midpoint (MG_MID) of Log10 GI50 [1, 8]: 5.42
mean graph midpoint (MG_MID) of Log10 TGI [1, 9]: 4.00
mean graph midpoint (MG_MID) of Log10 GI50 [2, 8]: 5.17
mean graph midpoint (MG_MID) of Log10 LC50 [2, 10]: 4.24
mean graph midpoint (MG_MID) of Log10 TGI [2, 9]: 4.56
mean graph midpoint (MG_MID) of Log10 GI50 (Colon cancer cell lines; [8]): 5.53
mean graph midpoint (MG_MID) of Log10 LC50 (Colon cancer cell lines; [10]): 4.76
mean graph midpoint (MG_MID) of Log10 TGI (Colon cancer cell lines; [9]): 5.15
mean graph midpoint (MG_MID) of Log10 LC50 (Breast cancer cell lines): 4.11
mean graph midpoint (MG_MID) of Log10 GI50 (Breast cancer cell lines; Breast panel, log of concentration in mol/L causing 50% inhibition of net cell growth): 5.18
mean graph midpoint (MG_MID) of Log10 TGI (Breast cancer cell lines; Breast panel, log of concentration resulting in total inhibition of net cell growth): 4.38
mean graph midpoint (MG_MID) of Log10 LC50 (Renal cancer cell lines): 3.73
mean graph midpoint (MG_MID) of Log10 GI50 (Renal cancer cell lines; Renal panel, log of concentration in mol/L causing 50% inhibition of net cell growth): 5.15
mean graph midpoint (MG_MID) of Log10 TGI (Renal cancer cell lines; Renal panel, log of concentration resulting in total inhibition of net cell growth): 4.55
mean graph midpoint (MG_MID) of Log10 LC50 [3]: 4.06
mean graph midpoint (MG_MID) of Log10 GI50 ([3]; Non-small cell lung panel, log of concentration in mol/L causing 50% inhibition of net cell growth): 4.72
mean graph midpoint (MG_MID) of Log10 TGI ([3]; Non-small cell lung panel, log of concentration resulting in total inhibition of net cell growth): 4.28
mean graph midpoint (MG_MID) of Log10 LC50 [4]: 4.22
mean graph midpoint (MG_MID) of Log10 GI50 ([4]; Ovarian panel, log of concentration in mol/L causing 50% inhibition of net cell growth): 5.26
mean graph midpoint (MG_MID) of Log10 TGI ([4]; Ovarian panel, log of concentration resulting in total inhibition of net cell growth): 4.62
mean graph midpoint (MG_MID) of Log10 GI50 (CNS cancer cell lines; [8]): 5.08
mean graph midpoint (MG_MID) of Log10 LC50 (CNS cancer cell lines; [10]): 4.24
mean graph midpoint (MG_MID) of Log10 TGI (CNS cancer cell lines; [9]): 4.50
pGI50 (-log of molar concentration causing 50% inhibition of net cell growth) [5]: 5.41
GI50 [5, 11]: 3.92 µM
pGI50 (-log of molar concentration causing 50% inhibition of net cell growth) (786-0 (renal)): 5.67
GI50 (786-0 (renal); [11]): 2.14 µM
pGI50 (-log of molar concentration causing 50% inhibition of net cell growth) (SF-295 (CNS)): 4.61
GI50 (SF-295 (CNS); [11]): 24.3 µM
pGI50 (-log of molar concentration causing 50% inhibition of net cell growth) (HCT-116 (colon)): 5.86
GI50 (HCT-116 (colon); [11]): 1.39 µM
pGI50 (-log of molar concentration causing 50% inhibition of net cell growth) (SK-MEL-5 (melanoma)): 5.06
GI50 (SK-MEL-5 (melanoma); [11]): 8.7 µM
pGI50 (-log of molar concentration causing 50% inhibition of net cell growth) (SW-620 (colon)): 5.76
GI50 (SW-620 (colon); [11]): 1.75 µM
pGI50 (-log of molar concentration causing 50% inhibition of net cell growth) (SK-MEL-28 (melanoma)): 4.96
GI50 (SK-MEL-28 (melanoma); [11]): 10.9 µM
pGI50 (-log of molar concentration causing 50% inhibition of net cell growth) (UO-31 (renal)): 5.15
GI50 (UO-31 (renal); [11]): 7.03 µM
pGI50 (-log of molar concentration causing 50% inhibition of net cell growth) [6]: 4.07
GI50 [6, 11]: 85.2 µM
pGI50 (-log of molar concentration causing 50% inhibition of net cell growth) (U251 (CNS)): 5.67
GI50 (U251 (CNS); [11]): 2.12 µM
pGI50 (-log of molar concentration causing 50% inhibition of net cell growth) (OVCAR-4 (ovarian)): 4.94
GI50 (OVCAR-4 (ovarian); [11]): 11.4 µM
GI50 (RXF 393 (renal); RXF 393, 48 h exposure, SRB, read-out: GI50): 3.22 µM
pGI50 (-log of molar concentration causing 50% inhibition of net cell growth) (RXF 393 (renal); RXF-393): 5.49
pGI50 (-log of molar concentration causing 50% inhibition of net cell growth) (A498 (renal)): 4.52
GI50 (A498 (renal); [11]): 30.2 µM
pGI50 (-log of molar concentration causing 50% inhibition of net cell growth) (MDA-MB-435 (melanoma)): 5.44
GI50 (MDA-MB-435 (melanoma); [11]): 3.63 µM
pGI50 (-log of molar concentration causing 50% inhibition of net cell growth) (MCF7 (breast)): 5.76
GI50 (MCF7 (breast); [11]): 1.74 µM
pGI50 (-log of molar concentration causing 50% inhibition of net cell growth) [7]: 4.89
GI50 [7, 11]: 12.9 µM
